System: HCV genotype 1b replicon in Huh 7 cells (HCV 1b_Huh-Luc/Neo-ET cell line)
Assay: HCV replicon assay (luciferase readout)
Type: cell-based
Details: Hepatitis C virus, Huh-7, 72 h, read-out: Inhibition of HCV genotype lb
Procedure: Biological activity of the compounds of the invention was determined using an HCV replicon assay. The HCV 1b_Huh-Luc/Neo-ET cell line persistently expressing a bicistronic genotype 1b replicon in Huh 7 cells was obtained from ReBLikon GMBH. This cell line was used to test compound inhibition using luciferase enzyme activity readout as a measurement of compound inhibition of replicon levels.
On Day 1 (the day after plating cells), each compound is added in triplicate to the cells. Plates are incubated for 72 h prior to determining luciferase levels. Enzyme activity was measured using a Bright-Glo Kit (cat. number E2620) manufactured by Promega Corporation. The following equation was used to generate a percent control value for each compound. % Control=(Compound Luciferase Level/Control Luciferase Level)*100
The EC50 value was determined using GraphPad Prism and the following equation: Y=Bottom asymptote+(Top asymptote−Bottom asymptote)/(1+10^((Log EC50−X)*HillSlope))
EC50 values of compounds are determined several times in the replicon assay to generate average EC50 values.

Structure (SMILES) | EC50
COCCOc1cc(-c2cnc([C@@H]3CCCN3C(=O)[C@H](NC(=O)OC)c3cccs3)[nH]2)ccc1-c1ccc(-c2cnc([C@@H]3CCCN3C(=O)[C@H](NC(=O)OC)c3cccs3)[nH]2)cc1OCCOC [Compound 79] | < 1 nM
COC(=O)N[C@H](C(=O)N1CCC[C@H]1c1ncc(-c2ccc(-c3ccc(-c4cnc([C@@H]5CCCN5C(=O)[C@@H](NC(=O)OC)C(C)C)[nH]4)c4c3OCCOCCOCCO4)cc2)[nH]1)C(C)C [Compound 80] | < 1 nM
COCCOc1cc(-c2cnc([C@@H]3CCCN3C(=O)[C@@H](c3ccccc3)N(C)C)[nH]2)ccc1-c1ccc(-c2cnc([C@@H]3CCCN3C(=O)[C@@H](c3ccccc3)N(C)C)[nH]2)cc1OCCOC [Compound 81] | 1 to 9.9 nM
COCCOc1cc(-c2cnc([C@@H]3CCCN3C(=O)[C@@H](c3ccccc3)N3CCCC3)[nH]2)ccc1-c1ccc(-c2cnc([C@@H]3CCCN3C(=O)[C@@H](c3ccccc3)N3CCCC3)[nH]2)cc1OCCOC [Compound 82] | 1 to 9.9 nM
COCCOc1cc(-c2cnc([C@@H]3CCCN3C(=O)[C@H](NC(C)=O)c3ccccc3)[nH]2)ccc1-c1ccc(-c2cnc([C@@H]3CCCN3C(=O)[C@H](NC(C)=O)c3ccccc3)[nH]2)cc1OCCOC [Compound 83] | 1 to 9.9 nM
COCCOc1cc(-c2cnc([C@@H]3CCCN3C(=O)[C@H](NS(C)(=O)=O)c3ccccc3)[nH]2)ccc1-c1ccc(-c2cnc([C@@H]3CCCN3C(=O)[C@H](NS(C)(=O)=O)c3ccccc3)[nH]2)cc1OCCOC [Compound 84] | 1 to 9.9 nM
CNC(=O)N[C@@H](C(=O)N1CCC[C@H]1c1ncc(-c2ccc(-c3ccc(-c4cnc([C@@H]5CCCN5C(=O)[C@H](NC(=O)NC)c5ccccc5)[nH]4)cc3OCCOC)c(OCCOC)c2)[nH]1)c1ccccc1 [Compound 85] | 1 to 9.9 nM
COCCOc1cc(-c2cnc([C@@H]3CCCN3C(=O)[C@H](C)NC(=O)OC)[nH]2)ccc1-c1ccc(-c2cnc([C@@H]3CCCN3C(=O)[C@@H](NC(=O)OC)C(C)C)[nH]2)cc1OCCOC [Compound 86] | 1 to 9.9 nM
COCCOc1cc(-c2cnc([C@@H]3CCCN3C(=O)[C@H](COC)NC(=O)OC)[nH]2)ccc1-c1ccc(-c2cnc([C@@H]3CCCN3C(=O)[C@@H](NC(=O)OC)C(C)C)[nH]2)cc1OCCOC [Compound 87] | 1 to 9.9 nM
COCCOc1cc(-c2cnc([C@@H]3CCCN3C(=O)[C@@H](NC(=O)OC)C(C)C)[nH]2)ccc1-c1ccc(-c2cnc([C@@H]3CCCN3C(=O)[C@H](NC(=O)OC)c3ccsc3)[nH]2)cc1OCCOC [Compound 88] | < 1 nM
COCCOc1cc(-c2cnc([C@@H]3CCCN3C(=O)[C@@H](NC(=O)OC)C(C)C)[nH]2)ccc1-c1ccc(-c2cnc([C@@H]3CCCN3C(=O)[C@H](NC(=O)OC)c3cccs3)[nH]2)cc1OCCOC [Compound 89] | < 1 nM
COCCOc1cc(-c2cnc([C@@H]3CCCN3C(=O)[C@@H](NC(=O)OC)C(C)C)[nH]2)ccc1-c1ccc(-c2cnc([C@@H]3CCCN3C(=O)[C@@H](c3ccccc3)N(C)C)[nH]2)cc1OCCOC [Compound 90] | 1 to 9.9 nM
COCCOc1c(-c2ccc(-c3cnc([C@@H]4CCCCN4C(=O)[C@@H](NC(=O)OC)C(C)C)[nH]3)cc2)ccc(-c2cnc([C@@H]3CCCCN3C(=O)[C@@H](NC(=O)OC)C(C)C)[nH]2)c1OCCOC [Compound 91] | 1 to 9.9 nM
COCCOc1cc(-c2cnc([C@@H]3CCCN3C(=O)[C@@H](NC(=O)OC)C(C)C)[nH]2)cc(OCCOC)c1-c1ccc(-c2cnc([C@@H]3CCCN3C(=O)[C@@H](NC(=O)OC)C(C)C)[nH]2)cc1 [Compound 92] | < 1 nM

Reference: patent US8822520B2, “Substituted bicyclic HCV inhibitors” (Presidio Pharmaceuticals, Inc., priority 2010, dated 2014)
